Data: ChEMBL document CHEMBL5518167, “Degradation of Polo-like Kinase 1 by the Novel Poly-Arginine N-Degron Pathway PROTAC Regulates Tumor Growth in Nonsmall Cell Lung Cancer” (J Med Chem, 2024)
Active and inactive are the calls of the source. No cut-off for these calls is given here. Where a SMILES comes first, the peptide text is derived from it. Bridges are numbered along the chain shown (N, C = ends). [ ]: non-standard residue; d: D form. His(π-(CH2)8Ph) = N[C@@H](Cc1cncn1CCCCCCCCc1ccccc1)C(=O)O; pT = C[C@@H](OP(=O)(O)O)[C@H](N)C(=O)O; Ahx = NCCCCCC(=O)O

Tests used:
A549 [1] = test: Cytotoxicity against human A549 cells incubated for 24 hrs by MTT assay; assay type: functional, cell-based; settings: A549, 24 h
PC-9 [2] = test: Cytotoxicity against human PC-9 cells incubated for 24 hrs by MTT assay; assay type: functional, cell-based; settings: PC-9, 24 h
[3] = molecular target: E3 ubiquitin-protein ligase UBR2 (Homo sapiens) (UniProt Q8IWV8); test: Binding affinity to UBR2 (unknown origin) expressed in HEK293T cells incubated for 3 hrs by pull-down assay; assay type: cell-based
HeLa [4] = test: Cytotoxicity against human HeLa cells assessed as change in morphology at 18 uM incubated for 24 hrs by phase contrast microscopic assay; assay type: functional, cell-based
A549 [5] = test: Cytotoxicity against human A549 cells assessed as change in morphology at 25 uM incubated for 24 hrs by phase contrast microscopic assay; assay type: functional, cell-based
A549 [6] = test: Induction of cell cycle arrest in human A549 cells assessed as G2/M phase arrest at 10 uM incubated for 24 hrs by PI staining based flow cytometry analysis; assay type: functional
PC-9 [7] = test: Induction of cell cycle arrest in human PC-9 cells assessed as G2/M phase arrest at 10 uM incubated for 24 hrs by PI staining based flow cytometry analysis; assay type: functional
NCI-H1975 [8] = test: Induction of cell cycle arrest in human NCI-H1975 cells assessed as delay in S phase progression at 10 uM incubated for 24 hrs by PI staining based flow cytometry analysis; assay type: functional
HeLa [9] = test: Induction of cell cycle arrest in human HeLa cells assessed as fold increase in S phase population at 10 uM incubated for 24 hrs by PI staining based flow cytometry analysis; assay type: functional
PC-9 [10] = test: Induction of cell cycle arrest in human PC-9 cells assessed as fold increase in S phase population at 10 uM incubated for 24 hrs by PI staining based flow cytometry analysis; assay type: functional
HeLa [11] = test: Induction of apoptosis in human HeLa cells at 18 uM incubated for 24 hrs by fluorescence microscopic analysis; assay type: functional, cell-based
PC-9 [12] = test: Induction of apoptosis in human PC-9 cells at 25 uM incubated for 24 hrs by fluorescence microscopic analysis; assay type: functional, cell-based
NCI-H1975 [13] = test: Induction of apoptosis in human NCI-H1975 cells at 25 uM incubated for 24 hrs by fluorescence microscopic analysis; assay type: functional, cell-based
[14] = Drug uptake in human HeLa cells cell membrane at 10 uM incubated for 24 hrs by PI staining based inverted confocal laser scanning fluorescence microscopic analysis; assay type: ADME
A549 [15] = test: Antitumor activity against human A549 cells xenografted in nude mouse assessed as fold reduction in tumor size at 10 mg/kg, iv; assay type: functional
PC-9 [16] = test: Antitumor activity against human PC-9 cells xenografted in nude mouse assessed as fold reduction in tumor size at 10 mg/kg, iv; assay type: functional
HeLa [17] = test: Antitumor activity against human HeLa cells xenografted in nude mouse assessed as fold reduction in tumor size at 10 mg/kg, iv; assay type: functional
NCI-H1975 [18] = test: Antitumor activity against human NCI-H1975 cells harboring L858R/T790M double mutant xenografted in iv dosed nude mouse assessed as tumor growth inhibition administered for every 3 days in presence of 5 mg/kg osimertinib; assay type: functional, organism-based
NCI-H1975 [19] = test: Antitumor activity against human NCI-H1975 cells harboring L858R/T790M double mutant xenografted in nude mouse assessed as fold reduction in tumor size at 10 mg/kg, iv administered for every 3 days in presence of 5 mg/kg osimertinib; assay type: functional
NCI-H1975 [20] = test: Antitumor activity against human NCI-H1975 cells harboring L858R/T790M double mutant xenografted in nude mouse assessed as fold reduction in tumor growth at 10 mg/kg, iv administered for every 3 days in presence of 5 mg/kg osimertinib; assay type: functional
[21] = In vivo induction of PLK1 degradation in nude mouse xenografted with human NCI-H1975 cells assessed as reduction in PLK1 protein expression at 10 mg/kg, iv administered for every 3 days by Western blotting analysis; assay type: functional; parameters: scale not given: the % may be the effect or the level left
[22] = In vivo induction of PLK1 degradation in nude mouse xenografted with human NCI-H1975 cells assessed as reduction in PLK1 protein expression at 10 mg/kg, iv administered for every 3 days in presence of 5 mg/kg osimertinib by Western blotting analysis; assay type: functional; parameters: scale not given: the % may be the effect or the level left
[23] = Protac activity at UBR/PLK1 in human HeLa cells assessed as PLK1 degradation incubated for 24 hrs by immunoblotting analysis
UBR/PLK1 (Homo sapiens) [24] = test: as above; settings: dose 25-100 µM
[25] = Protac activity at UBR/PLK1 in human A549 cells assessed as PLK1 degradation incubated for 24 hrs by immunoblotting analysis
UBR/PLK1 (Homo sapiens) [26] = test: as above; settings: dose 5-25 µM
[27] = Protac activity at UBR/PLK1 in human NCI-H1975 cells assessed as PLK1 degradation incubated for 24 hrs by immunoblotting analysis
UBR/PLK1 (Homo sapiens) [28] = test: as above; settings: dose 5-25 µM
UBR/PLK1 (Homo sapiens) [29] = test: Protac activity at UBR/PLK1 in human HeLa cells assessed as PLK1 degradation at 5 uM incubated for 24 hrs by immunoblotting analysis
UBR/PLK1 (Homo sapiens) [30] = test: Protac activity at UBR/PLK1 in human PC-9 cells assessed as PLK1 degradation at 25 uM incubated for 24 hrs by immunoblotting analysis
UBR/PLK1 (Homo sapiens) [31] = test: Protac activity at UBR/PLK1 in human PC-9 cells assessed as PLK1 degradation at 30 uM incubated for 24 hrs by immunoblotting analysis
UBR/PLK1 (Homo sapiens) [32] = test: Protac activity at UBR/PLK1 in human A549 cells assessed as PLK1 degradation at 30 uM incubated for 24 hrs by immunoblotting analysis
UBR/PLK1 (Homo sapiens) [33] = test: Protac activity at UBR/PLK1 in human NCI-H1975 cells assessed as PLK1 degradation at 5 to 30 uM preincubated for 24 hrs followed by MG132 addition for 8 hrs by immunoblotting analysis; settings: dose 5-30 µM, time 32.0 hrs
UBR/PLK1 (Homo sapiens) [34] = test: Protac activity at UBR/PLK1 in human HeLa cells assessed as PLK1 degradation at 4 uM preincubated for 24 hrs followed by compound washout and measured after 24 to 48 hrs by immunoblotting analysis

E3 ubiquitin-protein ligase UBR2 (Homo sapiens), sequence (Q8IWV8 whole entry): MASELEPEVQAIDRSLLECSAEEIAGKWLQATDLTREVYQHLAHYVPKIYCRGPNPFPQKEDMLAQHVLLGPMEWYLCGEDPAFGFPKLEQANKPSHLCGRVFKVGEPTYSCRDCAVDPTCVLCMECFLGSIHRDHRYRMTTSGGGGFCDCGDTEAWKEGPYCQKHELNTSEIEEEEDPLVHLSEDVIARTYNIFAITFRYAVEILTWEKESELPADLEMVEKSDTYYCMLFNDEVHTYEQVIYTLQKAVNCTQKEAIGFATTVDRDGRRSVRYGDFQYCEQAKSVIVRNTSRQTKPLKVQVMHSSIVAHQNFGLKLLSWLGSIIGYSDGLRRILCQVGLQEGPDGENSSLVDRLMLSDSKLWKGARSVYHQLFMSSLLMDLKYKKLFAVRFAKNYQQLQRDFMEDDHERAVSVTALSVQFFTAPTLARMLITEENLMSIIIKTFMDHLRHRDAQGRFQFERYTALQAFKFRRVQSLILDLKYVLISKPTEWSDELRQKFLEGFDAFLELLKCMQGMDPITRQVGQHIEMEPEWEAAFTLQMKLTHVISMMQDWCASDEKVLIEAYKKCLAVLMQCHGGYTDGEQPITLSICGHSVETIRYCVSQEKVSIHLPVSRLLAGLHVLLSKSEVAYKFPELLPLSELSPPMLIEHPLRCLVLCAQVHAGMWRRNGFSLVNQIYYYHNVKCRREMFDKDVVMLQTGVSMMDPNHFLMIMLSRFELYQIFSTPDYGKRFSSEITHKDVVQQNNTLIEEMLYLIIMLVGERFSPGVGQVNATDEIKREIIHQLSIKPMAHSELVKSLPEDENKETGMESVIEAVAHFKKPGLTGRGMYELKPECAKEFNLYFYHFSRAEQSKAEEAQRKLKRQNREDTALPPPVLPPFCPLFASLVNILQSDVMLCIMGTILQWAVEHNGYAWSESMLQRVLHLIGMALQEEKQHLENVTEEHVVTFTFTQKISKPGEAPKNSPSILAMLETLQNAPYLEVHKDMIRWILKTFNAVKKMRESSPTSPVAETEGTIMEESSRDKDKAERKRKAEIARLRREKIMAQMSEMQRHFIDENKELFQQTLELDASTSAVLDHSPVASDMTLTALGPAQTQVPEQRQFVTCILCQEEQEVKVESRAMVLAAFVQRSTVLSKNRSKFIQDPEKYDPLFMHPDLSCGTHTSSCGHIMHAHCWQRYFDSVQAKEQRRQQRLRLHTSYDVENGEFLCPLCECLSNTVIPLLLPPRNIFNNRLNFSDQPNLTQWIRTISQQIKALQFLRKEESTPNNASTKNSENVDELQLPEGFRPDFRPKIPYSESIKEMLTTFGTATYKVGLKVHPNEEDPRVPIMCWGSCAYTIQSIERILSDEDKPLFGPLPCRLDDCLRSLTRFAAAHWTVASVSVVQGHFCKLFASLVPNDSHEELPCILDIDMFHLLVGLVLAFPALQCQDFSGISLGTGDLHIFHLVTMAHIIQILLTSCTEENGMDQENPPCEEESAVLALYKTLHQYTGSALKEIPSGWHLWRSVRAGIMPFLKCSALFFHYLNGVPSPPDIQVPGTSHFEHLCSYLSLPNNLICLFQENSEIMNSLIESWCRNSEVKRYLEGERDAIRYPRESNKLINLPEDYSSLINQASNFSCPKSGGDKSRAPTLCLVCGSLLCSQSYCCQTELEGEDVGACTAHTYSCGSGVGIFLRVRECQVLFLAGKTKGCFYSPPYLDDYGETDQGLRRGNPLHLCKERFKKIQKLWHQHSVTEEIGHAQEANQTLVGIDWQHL

C[C@@H](OP(=O)(O)O)[C@@H]1NC(=O)[C@H](Cc2cncn2CCCCCCCCc2ccccc2)NC(=O)[C@@H](NC(=O)CCCCCNC(=O)[C@H](CCCNC(=N)N)NC(=O)[C@H](CCCNC(=N)N)NC(=O)[C@H](CCCNC(=N)N)NC(=O)[C@H](CCCNC(=N)N)NC(=O)[C@H](CCCNC(=N)N)NC(=O)[C@H](CCCNC(=N)N)NC(=O)[C@H](CCCNC(=N)N)NC(=O)[C@H](CCCNC(=N)N)NC(=O)[C@H](CCCNC(=N)N)NC(=O)[C@H](CCCNC(=N)N)NC(=O)[C@H](CCCNC(=N)N)NC(=O)[C@@H](N)CCCNC(=N)N)CCC(=O)NCCCC[C@@H](C(N)=O)NC1=O (H-RRRRRRRRRRRR[Ahx]E[His(π-(CH2)8Ph)][pT]K-NH2; lactam 14-17)
IC50 (A549 [1]): 20.6 µM | IC50 (PC-9 [2]): 17.1 µM | Activity [3]: Active | Activity (HeLa [4]): Active | Activity (A549 [5]): Active | Activity (A549 [6]): 10% | Activity (PC-9 [7]): 9% | Activity (NCI-H1975 [8]): Active | Activity (HeLa [9]): Active | Activity (PC-9 [10]): Active | Activity (HeLa [11]): Active | Activity (PC-9 [12]): Active | Activity (NCI-H1975 [13]): Active | Drug uptake [14]: Active | fold change (FC) (A549 [15]): 6.3 | fold change (FC) (PC-9 [16]): 5.2 | fold change (FC) (HeLa [17]): 3.4 | Activity (NCI-H1975 [18]): Dose-Dependent Effect | fold change (FC) (NCI-H1975 [19]): 3.5 | fold change (FC) (NCI-H1975 [20]): ~7 | Activity [21]: >60% | Activity [22]: 75% | DC50 [23]: 2500 nM | Activity (UBR/PLK1 (Homo sapiens) [24]): Dose-Dependent Effect | DC50 [25]: 27 µM | Activity (UBR/PLK1 (Homo sapiens) [26]): Dose-Dependent Effect | DC50 [27]: 12 µM | Activity (UBR/PLK1 (Homo sapiens) [28]): Dose-Dependent Effect | Emax (UBR/PLK1 (Homo sapiens) [29]): 80% | Activity (UBR/PLK1 (Homo sapiens) [30]): > 90% | Emax (UBR/PLK1 (Homo sapiens) [31]): 100% | Emax (UBR/PLK1 (Homo sapiens) [32]): > 60% | Activity (UBR/PLK1 (Homo sapiens) [33]): inactive | Activity (UBR/PLK1 (Homo sapiens) [34]): Active
